Source: ChEMBL document CHEMBL4004790, “ent-Strobane and ent-Pimarane Diterpenoids from Siegesbeckia pubescens” (J Nat Prod, 2017)
pIC50: −log10 of the molar value.

What was measured:
MDA-MB-231 = experiment: Antiinvasive activity in human MDA-MB-231 cells assessed as inhibition of EGF-induced cell invasion after 3.5 hrs; type: functional, cell-based; details: MDA-MB-231, 3.5 h
RAW264.7 = experiment: Antiinflammatory activity in mouse RAW264.7 cells assessed as inhibition of LPS-induced nitric oxide production after 24 hrs by Griess assay; type: functional, cell-based; details: RAW264.7, 24 h

Row | Structure (SMILES) | pIC50 (MDA-MB-231) | pIC50 (RAW264.7)
1 | Cc1ccc2c(c1)C(=O)C[C@@H]1[C@](C)(CO)CC(=O)C[C@@]21C | 5.37 | < 4.00
2 | CC1(C)[C@H](O)CC[C@@]2(C)[C@@H]3CC[C@](C)([C@@H](O)CO)C=C3CC[C@H]12 [DARUTIGENOL] | < 5.00 | < 4.00
3 | C[C@@]1(CO)C[C@@H](O)C[C@@]2(C)[C@@H]3CC[C@](C)([C@@H](O)CO)C=C3CC[C@H]12 [KIRENOL] | < 5.00 | < 4.00
4 | CC1(C)[C@H](O)CC[C@@]2(C)[C@@H]3CC[C@](C)(O)[C@@H](CO)C=C3CC[C@H]12 | < 5.00 | < 4.00
5 | C[C@@]1(CO)C[C@H](O)C[C@@]2(C)[C@@H]3CC[C@](C)([C@@H](O)CO)C=C3CC[C@H]12 | < 5.00 | < 4.00
6 | CC1(C)[C@H]2CC=C3[C@@H](CC[C@@]4(C)[C@@H]3OC[C@@H]4O)[C@]2(C)CC[C@@H]1O | < 5.00 | < 4.00
7 | CC1(C)[C@H](O)C[C@H](O)[C@@]2(C)[C@@H]3CC[C@](C)([C@@H](O)CO)C=C3CC[C@H]12 | < 5.00 | < 4.00
8 | C[C@@]1(CO)C[C@@H](O)C[C@@]2(C)[C@@H]3CC[C@](C)([C@@H](O)CO)C=C3[C@@H](O)C[C@H]12 | < 5.00 | < 4.00
9 | CC1(C)[C@H](O)CC[C@@]2(C)[C@@H]3CC[C@@]4(C)[C@H](OC[C@@H]4O)C3=CC[C@H]12 | < 5.00 | < 4.00
10 | CC1(C)[C@H](O)CC[C@@]2(C)[C@@H]3CC[C@](C)([C@@H](O)CO)C=C3C=C[C@H]12 | < 5.00 | < 4.00
11 | C[C@]1(CO)C[C@@H](O)C[C@@]2(C)[C@@H]3CC[C@](C)([C@@H](O)CO)C=C3CC[C@H]12 | < 5.00 | < 4.00
12 | Cc1ccc2c(c1)CC[C@@H]1[C@](C)(CO)C[C@@H](O)C[C@@]21C | < 5.00 | < 4.00
13 | C[C@@]1(CO)C[C@@H](O)C[C@@]2(C)[C@@H]3CC[C@](C)([C@@H](O)CO)C=C3C=C[C@H]12 | < 5.00 | < 4.00
14 | CC1(C)[C@H](O)CC[C@@]2(C)[C@@H]3CC[C@](C)([C@H](O)CO)C=C3CC[C@H]12 | 5.46 | < 4.00
15 | C[C@]1(CO)[C@H]2CCC3=C[C@@](C)([C@@H](O)CO)CC[C@H]3[C@]2(C)C[C@H](O)[C@H]1O | < 5.00 | < 4.00
16 | C[C@@]1(CO)C[C@@H](O)C[C@@]2(C)[C@@H]3CC[C@](C)(O)[C@@H](CO)C=C3CC[C@H]12 | < 5.00 | < 4.00
17 | C[C@@]1(CO)C[C@@H](O)C[C@@]2(C)[C@@H]3CC[C@](C)([C@H](O)CO)C=C3CC[C@H]12 | < 5.00 | < 4.00
18 | C[C@@]1(CO)C[C@@H](O)C[C@@]2(C)[C@@H]3CC[C@](C)([C@@H](O)CO)C=C3[C@H](O)C[C@H]12 | 5.01 | < 4.00
